Several values for one entry are separate records, joined by “and”; a condition that tells them apart may be missing. Identical values can stand only once. Like-named read-outs stand apart in the source and are kept apart here.
How the values were obtained:
5-HT7 = assay: 5-HT receptor binding, displacement of tritiated ligands; settings: at 10 μM
Method: (§1) 5-HT receptor binding was measured using membrane preparations of brain regions known to be enriched with given 5-HT receptor subtype(s). The assay subsequently measured the displacement of tritiated ligands known to bind to a given 5-HT subtype.
(§2) A receptor binding assay was performed for ICI-1259 and ICI-1260 showing that at 10 μM, these compounds bind receptors 5-HT1A(h), 5-HT1B, 5-HT1D(h), 5-HT2A, 5-HT2A(h), 5-HT2B, 5-HT2C, 5-HT3,5-HT3(h), 5-HT4, 5-HT5A(h), 5-HT6, and 5-HT7.

5-HT2C = assay: as above; settings: at 10 μM
Method: as §1, §2

5-HT1A(h) = target: T1, 5-HT1A(h) (Homo sapiens, UniProt P08908); assay: as above; settings: at 10 μM
T1 construct: from tissue
T1 sequence (P08908 1-422): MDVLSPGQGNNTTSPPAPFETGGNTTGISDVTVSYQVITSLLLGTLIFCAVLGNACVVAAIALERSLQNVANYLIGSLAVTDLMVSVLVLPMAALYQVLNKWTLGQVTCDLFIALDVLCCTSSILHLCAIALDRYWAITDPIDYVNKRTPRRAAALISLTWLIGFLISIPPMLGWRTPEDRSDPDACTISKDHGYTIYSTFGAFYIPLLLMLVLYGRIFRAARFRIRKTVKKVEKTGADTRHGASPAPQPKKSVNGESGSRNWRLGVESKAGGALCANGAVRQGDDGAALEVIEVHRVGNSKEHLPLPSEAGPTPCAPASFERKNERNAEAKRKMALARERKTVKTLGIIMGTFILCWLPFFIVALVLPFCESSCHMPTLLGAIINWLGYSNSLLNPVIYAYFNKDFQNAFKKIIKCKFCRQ
Method: as §1, §2

5-HT4 = assay: as above; settings: at 10 μM
Method: as §1, §2

5-HT2A = assay: as above; settings: at 10 μM
Method: as §1, §2

[1] = system: bovine type 2 collagen immunized rats; assay: Collagen-induced arthritis assay, IP injection protocol, ankle diameter; format: in vivo, rat
Method: (§3) Female Lewis rats (CR) weighing between 125-200 g were immunized with bovine type 2 collagen, 2 mg/ml in a 1:1 solution of 0.01 N acetic acid and Freund's incomplete adjuvant (“FIA”). A 0.1 ml portion of the collagen solution was injected id (intradermally) at three sites on the rat. Rats were immunized with the collagen solution on days 1 and 6 of the study. […] On day 9 (study day “0”), baseline ankle diameters were measured. On days 10-15 (study days 1-6), the rats were then treated, via oral gavage, with either 1, 5, or 25 mg/kg of one of ICI-1259 or ICI-1260, prepared as described below. Ankle diameter measurements were measured on each of days 10-16.
Compounds ICI-1259, ICI-1260, ICI-1505, and ICI-1506 were administered via IP injection to treat collagent-induced arthritis in a variation of the experiments described above. Under the protocol of the IP injection experiments, animal were immunized with Bovine Type 2 collagen as previously described. […] On day 9 (study day “0”), baseline ankle diameters were measured. On days 10-12 (study days 1-3), the rats were then treated once per day, via IP injection, with one of ICI-1259, ICI-1260, ICI-1505, or ICI-1506 at 10 mg/kg. Ankle diameter in the immunized rodents was measured on each of days 10-13 as well as on day 14. […] See FIG. 18 (ICI-1259, ICI-1260, and ICI-1505) and FIG. 19 (ICI-1506).
In a separate study, using the IP injection protocol described above, ICI-1259 and 1260 were each dosed at 2 mg/kg and 0.4 mg/kg.

[2] = Pharmacokinetic study, oral gavage in fasted male Sprague-Dawley rats; format: in vivo, rat; settings: for Tmax: read-out: tmax
Method: ICI-1259 and ICI-1260 were supplied as powders and stored frozen until used. Dosing solutions in phosphate buffered saline were prepared at 1 mg/ml. These solutions were then evaluated in fasted male Sprague-Dawley rats. The rats were fitted with a jugular vein cannula for blood sampling. Rats were also fitted with an additional jugular vein cannula, or intradudodenal cannula as needed. Rats were given a commercial rodent diet ad libitum prior to study initiation. Food was then withheld from the animals for a minimum of twelve hours prior to dosing, until four hours postdose when food was returned. Water was supplied ad libitum. Three rats were used in each study, unless otherwise indicated.
For both ICI-1259 and ICI-1260, rats were given a 10 mg/kg dose from a 1 mg/ml solution. The appropriate volume of solution was given as a single bolus dose at time zero on the day of dosing. Blood samples were taken at predose, 5 minutes after dosing, 10 minutes after dosing, 15 minutes after dosing, 30 minutes after dosing, 1 hour after dosing, 2 hours after dosing, 4 hours after dosing, 6 hours after dosing, and 8 hours after dosing.

[3] = system: bovine type 2 collagen immunized female Lewis rats; assay: Collagen-induced arthritis assay, oral gavage treatment, ankle diameter; format: in vivo, rat; settings: oral 25 mg/kg; study days 5-7
Method: as §3
Separate solutions of ICI-1259 and ICI-1260 were prepared in Dulbecco's PBS (pH 7) (“vehicle”) at 1 mg/ml. Control animals, who had not been immunized, were given vehicle without any compound. In a further control, immunized rats were given vehicle without ICI-1259 or ICI-1260. In still another control, immunized rats were treated with Enbrel™ at 10 mg/kg.

[4] = individual rats, oral gavage 10 mg/kg, 10 mg/kg
[5] = male, Sprague-Dawley, rat, plasma, po, 10 mg/kg, individual rats, oral gavage 10 mg/kg
[6] = male, Sprague-Dawley, rat, plasma, po, 10 mg/kg, mean, oral gavage 10 mg/kg

## CNCC(=O)NCCCN1CCC(CCCN2c3ccccc3Sc3ccc(C(F)(F)F)cc32)CC1 [ICI-1259, 2-(methylamino)-N-(3-(4-(3-(2-(trifluoromethyl)-10H-phenothiazin-10-yl)propyl)piperidin-1-yl)propyl)acetamide]
5-HT7
  receptor binding: bind
5-HT2C
  receptor binding: bind
5-HT1A(h)
  receptor binding: bind
5-HT4
  receptor binding: bind
5-HT2A
  receptor binding: bind
[1]; IP injection 0.4 mg/kg
  reduction in ankle swelling (ankle diameter): Statistically significant results were only observed for ICI-1260 at 2 mg/kg
[1]; IP injection 2 mg/kg, study days 3 and 4
  reduction in ankle swelling (ankle diameter): Statistically significant results were only observed for ICI-1260 at 2 mg/kg
[1]; IP injection 10 mg/kg once per day, study days 1-3, observed on study days 2-4
  reduction in ankle swelling (ankle diameter): statistically significant results were observed
[2]; indirectly indicated by the average bioavailability, oral 10 mg/kg
  dose absorbed after oral dosing: approximately 38%
[2]; [4]
  AUClast: 98.7 ng·h/mL and 74.2 ng·h/mL
  Cmax: 28.4 ng/mL and 24.3 ng/mL
  Dose Normalized AUClast: 6.52 kg·ng·h/mL/mg and 9.87 kg·ng·h/mL/mg and 7.42 kg·ng·h/mL/mg
[2]; individual rats, oral gavage 10 mg/kg, 0.083 hr, BLOQ = below limit of quantitation (1 ng/mL)
  Plasma concentration: BLOQ
[2]; individual rats, oral gavage 10 mg/kg, 0.25 hr, 10 mg/kg
  Plasma concentration: 1.10 ng/mL and 3.38 ng/mL and 4.62 ng/mL
[2]; individual rats, oral gavage 10 mg/kg, 0.50 hr, 10 mg/kg
  Plasma concentration: 1.56 ng/mL and 3.45 ng/mL and 5.39 ng/mL
[2]; individual rats, oral gavage 10 mg/kg, 1.0 hr, 10 mg/kg
  Plasma concentration: 5.21 ng/mL and 17.6 ng/mL and 4.81 ng/mL
[2]; individual rats, oral gavage 10 mg/kg, 2.0 hr, 10 mg/kg
  Plasma concentration: 28.4 ng/mL and 24.3 ng/mL
[2]; individual rats, oral gavage 10 mg/kg, 4.0 hr, 10 mg/kg
  Plasma concentration: 7.49 ng/mL and 7.34 ng/mL
[2]; individual rats, oral gavage 10 mg/kg, 6.0 hr, 10 mg/kg
  Plasma concentration: 10.8 ng/mL and 6.73 ng/mL
[2]; individual rats, oral gavage 10 mg/kg, 8.0 hr, 10 mg/kg
  Plasma concentration: 4.35 ng/mL and 3.04 ng/mL
[2]; individual rats, oral gavage 10 mg/kg, dose normalized AUC divided by average intravenous AUC, 10 mg/kg
  bioavailability: 17% and 13%
[2]; [5]
  AUC(0-t): 65.2 ng·h/mL
  Tmax: 2 h
[2]; male, Sprague-Dawley, rat, plasma, po, 10 mg/kg, individual rats, oral gavage 10 mg/kg, 2.0 hr
  concentration at 2 hr: 16.6 ng/mL
[2]; male, Sprague-Dawley, rat, plasma, po, 10 mg/kg, individual rats, oral gavage 10 mg/kg, 4.0 hr
  concentration at 4 hr: 8.31 ng/mL
[2]; male, Sprague-Dawley, rat, plasma, po, 10 mg/kg, individual rats, oral gavage 10 mg/kg, 6.0 hr
  concentration at 6 hr: 7.85 ng/mL
[2]; male, Sprague-Dawley, rat, plasma, po, 10 mg/kg, individual rats, oral gavage 10 mg/kg, 8.0 hr
  concentration at 8 hr: 3.28 ng/mL
[2]; male, Sprague-Dawley, rat, plasma, po, 10 mg/kg, individual rats, oral gavage 10 mg/kg, dose normalized AUC divided by average intravenous AUC, read-out: Bioavailability
  bioavailability: 11%
[2]; male, Sprague-Dawley, rat, plasma, po, 10 mg/kg, individual rats, oral gavage 10 mg/kg, read-out: Cmax
  Cmax: 16.6 ng/mL
[2]; male, Sprague-Dawley, rat, plasma, po, 10 mg/kg, mean (average), oral gavage 10 mg/kg, read-out: Bioavailability
  bioavailability: 14%
[2]; [6]
  AUC(0-t): 79.4 ng·h/mL
  Tmax: 2 h
[2]; male, Sprague-Dawley, rat, plasma, po, 10 mg/kg, mean, oral gavage 10 mg/kg, 0.25 hr
  concentration at 0.25 hr: 3.03 ng/mL
[2]; male, Sprague-Dawley, rat, plasma, po, 10 mg/kg, mean, oral gavage 10 mg/kg, 0.50 hr
  concentration at 0.5 hr: 3.47 ng/mL
[2]; male, Sprague-Dawley, rat, plasma, po, 10 mg/kg, mean, oral gavage 10 mg/kg, 1.0 hr
  concentration at 1 hr: 9.21 ng/mL
[2]; male, Sprague-Dawley, rat, plasma, po, 10 mg/kg, mean, oral gavage 10 mg/kg, 2.0 hr
  concentration at 2 hr: 23.1 ng/mL
[2]; male, Sprague-Dawley, rat, plasma, po, 10 mg/kg, mean, oral gavage 10 mg/kg, 4.0 hr
  concentration at 4 hr: 7.71 ng/mL
[2]; male, Sprague-Dawley, rat, plasma, po, 10 mg/kg, mean, oral gavage 10 mg/kg, 6.0 hr
  concentration at 6 hr: 8.46 ng/mL
[2]; male, Sprague-Dawley, rat, plasma, po, 10 mg/kg, mean, oral gavage 10 mg/kg, 8.0 hr
  concentration at 8 hr: 3.56 ng/mL
[2]; male, Sprague-Dawley, rat, plasma, po, 10 mg/kg, mean, oral gavage 10 mg/kg, read-out: Cmax
  Cmax: 23.1 ng/mL
[2]; mean, oral gavage 10 mg/kg
  Dose Normalized AUClast: 7.94 kg·ng·h/mL/mg
[3]
  reduction in ankle swelling: statistically significant reduction in ankle swelling

— patent publication US20090275557A1, “Novel Composition for Treatment of Diseases Related to Activated Lymphocytes” (Immune Control, Inc., priority 2008, published 2009)
